Patent US11026944B2, “Compositions and methods for treating insomnia” (Eisai R&D Management Co., Ltd., priority 2014, dated 2021)

Tested on: subjects with insomnia
Assay: 201 Study: polysomnography (SE, LPS, WASO) dose-response
Assay type: in vivo, human
Description: This was a multi-center, randomized, double-blind, adaptive design, dose-response study in subjects with insomnia. Subjects were randomized to 1 of 6 doses of compound A (1 mg, 2.5 mg, 5 mg, 10 mg, 15 mg and 25 mg) or placebo.
The study had 2 phases: Prerandomization and Randomization. The Prerandomization Phase lasted up to 21 days and consisted of a Screening Period (Days-21 to -2) and a Baseline Period (Day-1). After the Baseline Period, all eligible subjects were randomized in a double-blind manner to receive compound A or placebo for 15 nights during the Treatment Period (Days 1 to 15). All subjects then received placebo in a single-blind manner, for 2 nights (Days 16 to 17) during the Rebound Insomnia Assessment Period (Days 16 to 18). […] All subjects came to the clinic for screening procedures. During the Screening Period, subjects completed the Sleep Diary each day. Polysomnographic sleep was measured during the Screening Period on 2 consecutive nights between Day-9 and Day-3. The 8-hour polysomnograms (PSGs) were started at the median habitual bedtime calculated from responses on the Sleep Diary, which were completed for 7 days before the first PSG night. These recordings served as both eligibility screening PSGs and as Baseline PSGs. Subjects could leave the clinic between the screening/Baseline PSG nights.
All subjects returned to the clinic on Day-1 for Baseline Period procedures. They remained in the clinic until Day 3. Morning assessments on Day 1 provided the Baseline values for the KSS, the Digit Symbol Substitution Test (DSST), and the Reaction Time Index (RTI). Assessments at 6 hours after waketime provided the Baseline values for the Waking Function Battery (WFB), and the Profile of Mood States-Brief (POMS-B). Subjects were then randomized to receive 1 of 6 doses of compound A or placebo for the next 15 days. Study drugs were tablets containing compound A-matched placebo or compound A of 1 mg, 2.5 mg, 5 mg, or 10 mg and to be ingested 30 minutes before the median habitual bedtime calculated from their Sleep Diary responses during the Screening Period. An 8-hour PSG, starting at the same bedtime as used for the screening and Baseline PSG nights, was recorded on the first 2 treatment nights (Days 1 and 2). The Sleep Diary continued to be completed each day in the clinic, and assessments of insomnia severity (ISI), next-day residual effects (KSS, DSST, and RTI) were conducted while subjects were in the clinic. On specified study days, plasma concentrations of compound A were assessed while subjects were in the clinic in the morning after awakening and at trough just before dosing.
Subjects continued to take compound A or placebo 30 minutes before their anticipated, self-selected bedtime and continued to complete the Sleep Diary each day while at home during the Treatment Period. On Day 14 of the Treatment Period, subjects returned to the clinic. They remained in the clinic for 4 nights and the intervening days until Day 18. Eight-hour PSGs were recorded each night in the clinic, to start at the median habitual bedtime calculated from responses on the Sleep Diary completed on Days 3 to 13. The Sleep Diary continued to be completed each day in the clinic, and the ISI, KSS, DSST, RTI, were administered at prespecified time points during the daytime hours.
In Table 5, “Baseline” was defined as the mean of the screening PSG 1 and 2, within −9 to −3 days of randomization. “LS Means Diff” refers to the differences between LS Means of Placebo and each compound A dose, “95% CI” means to 95% CI of LS Means Diff. “p-value” was analyzed using analysis of covariance (ANCOVA) with baseline as a covariate.
In Table 7, “Baseline” was defined as the mean of the screening PSG 1 and 2, within −9 to −3 days of randomization. “p-value” was analyzed using analysis of covariance (ANCOVA) with baseline as a covariate.
In Table 8, “Baseline” was defined as the mean of the screening PSG 1 and 2, within −9 to −3 days of randomization. […]

[1] = Days 14 & 15 minus Days 1 & 2, 1 mg nightly
[2] = Days 14 & 15 minus Days 1 & 2, 2.5 mg nightly
[3] = Days 14 & 15 minus Days 1 & 2, 5 mg nightly
[4] = Days 14 & 15 minus Days 1 & 2, 10 mg nightly
[5] = Days 14 & 15 minus Days 1 & 2, 15 mg nightly
[6] = Days 14 & 15 minus Days 1 & 2, 25 mg nightly

Cc1ncc(OC[C@@]2(c3cccc(F)c3)C[C@H]2C(=O)Nc2ccc(F)cn2)c(C)n1 [Compound A, (1R,2 S)-2-(((2,4-dimethylpyrimidin-5-yl)oxy)methyl)-2-(3-fluorophenyl)-N-(5-fluoropyridin-2-yl) cyclopropanecarboxamide]
Change from Baseline in WASO, Mean of Days 1 & 2: LS Means Diff vs placebo (15 mg nightly): -29.3 min | Change from Baseline in WASO, Mean of Days 1 & 2: Mean (15 mg nightly): -66.1 min | Change from Baseline in WASO, Mean of Days 14 & 15: LS Means Diff vs placebo (15 mg nightly): -20.8 min | Change from Baseline in WASO, Mean of Days 14 & 15: Mean (15 mg nightly): -53.4 min | Change from Baseline in LPS, Mean of Days 1 & 2: Geometric Mean Ratio (compound A/placebo) (25 mg nightly): 0.39 | Change from Baseline in LPS, Mean of Days 14 & 15: Geometric Mean Ratio (compound A /placebo) (25 mg nightly): 0.34 | Change from Baseline in SE, Mean of Days 1 & 2: LS Means Diff vs placebo (25 mg nightly): 10.13% | Change from Baseline in SE, Mean of Days 1 & 2: Mean (25 mg nightly): 22.7% | Change from Baseline in SE, Mean of Days 14 & 15: LS Means Diff vs placebo (25 mg nightly): 8.87% | Change from Baseline in SE, Mean of Days 14 & 15: Mean (25 mg nightly): 21.4% | Change from Baseline in WASO, Mean of Days 1 & 2: LS Means Diff vs placebo (25 mg nightly): -25.8 min | Change from Baseline in WASO, Mean of Days 1 & 2: Mean (25 mg nightly): -62.3 min | Change from Baseline in WASO, Mean of Days 14 & 15: LS Means Diff vs placebo (25 mg nightly): -21.5 min | Change from Baseline in WASO, Mean of Days 14 & 15: Mean (25 mg nightly): -53.9 min | SE (B)-(A) Potential Habituation Effect: LS Means Diff vs placebo [1]: −3.3% | SE (B)-(A) Potential Habituation Effect: Mean [1]: −4.0% | WASO (B)-(A) Potential Habituation Effect: LS Means Diff vs placebo [1]: 13.2 min | WASO (B)-(A) Potential Habituation Effect: Mean [1]: 18.0 min | SE (B)-(A) Potential Habituation Effect: LS Means Diff vs placebo [2]: 0.3% | SE (B)-(A) Potential Habituation Effect: Mean [2]: −0.5% | WASO (B)-(A) Potential Habituation Effect: LS Means Diff vs placebo [2]: -2.9 min | WASO (B)-(A) Potential Habituation Effect: Mean [2]: 2.2 min | SE (B)-(A) Potential Habituation Effect: LS Means Diff vs placebo [3]: 1.0% | SE (B)-(A) Potential Habituation Effect: Mean [3]: 0.1% | WASO (B)-(A) Potential Habituation Effect: LS Means Diff vs placebo [3]: -2.9 min | WASO (B)-(A) Potential Habituation Effect: Mean [3]: 2.7 min | SE (B)-(A) Potential Habituation Effect: LS Means Diff vs placebo [4]: 0.3% | SE (B)-(A) Potential Habituation Effect: Mean [4]: −0.7% | WASO (B)-(A) Potential Habituation Effect: LS Means Diff vs placebo [4]: 2.8 min | WASO (B)-(A) Potential Habituation Effect: Mean [4]: 9.3 min | SE (B)-(A) Potential Habituation Effect: LS Means Diff vs placebo [5]: −1.3% | SE (B)-(A) Potential Habituation Effect: Mean [5]: −2.3% | WASO (B)-(A) Potential Habituation Effect: LS Means Diff vs placebo [5]: 5.2 min | WASO (B)-(A) Potential Habituation Effect: Mean [5]: 11.8 min | SE (B)-(A) Potential Habituation Effect: LS Means Diff vs placebo [6]: −1.1% | SE (B)-(A) Potential Habituation Effect: Mean [6]: −2.1% | WASO (B)-(A) Potential Habituation Effect: LS Means Diff vs placebo [6]: 2.7 min | WASO (B)-(A) Potential Habituation Effect: Mean [6]: 9.3 min | LPS (B)-(A) Potential Habituation Effect: Geometric Mean Ratio (compound A/placebo) (Days 14 & 15 vs Days 1 & 2, 1 mg nightly): 0.93 | LPS (B)-(A) Potential Habituation Effect: Geometric Mean Ratio (compound A/placebo) (Days 14 & 15 vs Days 1 & 2, 2.5 mg nightly): 0.90 | LPS (B)-(A) Potential Habituation Effect: Geometric Mean Ratio (compound A/placebo) (Days 14 & 15 vs Days 1 & 2, 5 mg nightly): 0.77 | LPS (B)-(A) Potential Habituation Effect: Geometric Mean Ratio (compound A/placebo) (Days 14 & 15 vs Days 1 & 2, 10 mg nightly): 0.60 | LPS (B)-(A) Potential Habituation Effect: Geometric Mean Ratio (compound A/placebo) (Days 14 & 15 vs Days 1 & 2, 15 mg nightly): 0.76 | LPS (B)-(A) Potential Habituation Effect: Geometric Mean Ratio (compound A/placebo) (Days 14 & 15 vs Days 1 & 2, 25 mg nightly): 0.89 | WASO, Days 1/2 compared to Days 14/15 (all doses): no statistical evidence of an increase or decrease in WASO | LPS geometric mean ratios vs placebo, significance (all other doses (2.5-25 mg), Mean of Days 1/2): evidence of statistical significance | WASO change from baseline vs placebo, significance (mean of Days 1/2, doses of 10 mg and above): statistically significant against placebo | WASO change from baseline vs placebo, significance (mean of Days 14/15, doses 15 mg and above): statistically significant against placebo
